Tested on: 755483-174-R-J1-PDC complex spheroid growth, percent test/control
Test: Anticancer human tumor 755483-174-R-J1-PDC patient-derived rhabdomyosarcoma cell line growth inhibition [Asc]
Details: for IC50: curve of first compound; for viability, T/C: stronger effect = lower value
Method in brief: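 Complex solid-tumor spheroids incorporating human endothelial and mesenchymal stem cells received single agents or combinations over half-log dilution ranges anchored to clinical Cmax.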

[1] = second compound 0.1 µM, first compound 0.00949 µM
[2] = second compound 0.1 µM, first compound 0.03 µM
[3] = second compound 0.1 µM, first compound 0.0949 µM
[4] = second compound 0.1 µM, first compound 0.3 µM
[5] = second compound 0.316 µM, first compound 0.00949 µM
[6] = second compound 0.316 µM, first compound 0.03 µM
[7] = second compound 0.316 µM, first compound 0.0949 µM
[8] = second compound 0.316 µM, first compound 0.3 µM
[9] = second compound 1 µM, first compound 0.00949 µM
[10] = second compound 1 µM, first compound 0.03 µM
[11] = second compound 1 µM, first compound 0.0949 µM
[12] = second compound 1 µM, first compound 0.3 µM
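Also: spheroids exposed to compounds for seven days before readout.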

For `NC(=O)C(=Cn1cnc(-c2cc(C(F)(F)F)cc(C(F)(F)F)c2)n1)c1cncnc1` + Cc1c(S(C)(=O)=O)c(-c2cc(F)cc(N3CCN(c4ccc(NS(=O)(=O)c5ccc(NC(CCN6CCC(C(=O)OCCCP(=O)(O)O)CC6)CSc6ccccc6)c(S(=O)(=O)C(F)(F)F)c5)cc4)CC3)c2)c(-c2ccc(Cl)cc2)n1C(C)C, the IC50 (second compound 0.1 µM) was < 0.949 nM, the IC50 (second compound 0.316 µM) was < 0.949 nM and the IC50 (second compound 1 µM) was < 0.949 nM. The IC50 (second compound 3.16 µM) was < 0.949 nM, the IC50 (second compound 10 µM) was < 0.949 nM and the viability, T/C (second compound 0.1 µM, first compound 0.000949 µM) was 47.5%. For the same molecule, the viability, T/C (second compound 0.1 µM, first compound 0.003 µM) was 36.2%, the viability, T/C [1] was 22.7% and the viability, T/C [2] was 6.11%. It also gave a viability, T/C [3] of 16.4%, a viability, T/C [4] of 4.19% and a viability, T/C (second compound 0.316 µM, first compound 0.000949 µM) of 47%. It also gave a viability, T/C (second compound 0.316 µM, first compound 0.003 µM) of 31.2%, a viability, T/C [5] of 12.9% and a viability, T/C [6] of 7.11%. It also gave a viability, T/C [7] of 2.26%, a viability, T/C [8] of 1.84% and a viability, T/C (second compound 1 µM, first compound 0.000949 µM) of 34%. For the same molecule, the viability, T/C (second compound 1 µM, first compound 0.003 µM) was 38.8%, the viability, T/C [9] was 13.9% and the viability, T/C [10] was 7.14%. It also gave a viability, T/C [11] of 3.61%, a viability, T/C [12] of 2.25% and a viability, T/C (second compound 3.16 µM, first compound 0.000949 µM) of 30.6%. For the same molecule, the viability, T/C (second compound 3.16 µM, first compound 0.003 µM) was 25.2%, the viability, T/C (second compound 3.16 µM, first compound 0.00949 µM) was 14.1% and the viability, T/C (second compound 3.16 µM, first compound 0.03 µM) was 5.04%. The viability, T/C (second compound 3.16 µM, first compound 0.0949 µM) was 3%, the viability, T/C (second compound 3.16 µM, first compound 0.3 µM) was 4.14% and the viability, T/C (second compound 10 µM, first compound 0.000949 µM) was 24.6%. The viability, T/C (second compound 10 µM, first compound 0.003 µM) was 33.5%, the viability, T/C (second compound 10 µM, first compound 0.00949 µM) was 13.9% and the viability, T/C (second compound 10 µM, first compound 0.03 µM) was 3.72%. For the same molecule, the viability, T/C (second compound 10 µM, first compound 0.0949 µM) was 1.94% and the viability, T/C (second compound 10 µM, first compound 0.3 µM) was 0.83%.
For `CCN1C(C(=O)NC23CCC(C(=O)O)(CC2)CC3)C(c2cccc(Cl)c2F)C2(C(=O)Nc3cc(Cl)ccc32)C12CCCCC2` (stereo not given) + CNC(C)C(=O)NC1CN(S(=O)(=O)c2cccc(S(=O)(=O)N3CCC4CCC(C(=O)NC(c5ccccc5)c5ccccc5)N4C(=O)C(NC(=O)C(C)NC)C3)c2)CCC2CCC(C(=O)NC(c3ccccc3)c3ccccc3)N2C1=O, the IC50 (second compound 0.01 µM) was 148 nM, the IC50 (second compound 0.0316 µM) was < 9.49 nM and the IC50 (second compound 0.1 µM) was < 9.49 nM. The IC50 (second compound 0.316 µM) was < 9.49 nM, the IC50 (second compound 1 µM) was < 9.49 nM and the viability, T/C (second compound 0.01 µM, first compound 0.00949 µM) was 56.2%. The viability, T/C (second compound 0.01 µM, first compound 0.03 µM) was 73.9%, the viability, T/C (second compound 0.01 µM, first compound 0.0949 µM) was 55% and the viability, T/C (second compound 0.01 µM, first compound 0.3 µM) was 39.3%. It also gave a viability, T/C (second compound 0.01 µM, first compound 0.949 µM) of 48.2%, a viability, T/C (second compound 0.01 µM, first compound 3 µM) of 38.6% and a viability, T/C (second compound 0.0316 µM, first compound 0.00949 µM) of 38.6%. The viability, T/C (second compound 0.0316 µM, first compound 0.03 µM) was 45.8%, the viability, T/C (second compound 0.0316 µM, first compound 0.0949 µM) was 50% and the viability, T/C (second compound 0.0316 µM, first compound 0.3 µM) was 49.2%. It also gave a viability, T/C (second compound 0.0316 µM, first compound 0.949 µM) of 44.2%, a viability, T/C (second compound 0.0316 µM, first compound 3 µM) of 28.9% and a viability, T/C [1] of 27.9%. For the same molecule, the viability, T/C [2] was 23.6%, the viability, T/C [3] was 39.4% and the viability, T/C [4] was 28.9%. The viability, T/C (second compound 0.1 µM, first compound 0.949 µM) was 32.6%, the viability, T/C (second compound 0.1 µM, first compound 3 µM) was 24.4% and the viability, T/C [5] was 19.9%. It also gave a viability, T/C [6] of 26.2%, a viability, T/C [7] of 40% and a viability, T/C [8] of 37.9%. For the same molecule, the viability, T/C (second compound 0.316 µM, first compound 0.949 µM) was 23.5%, the viability, T/C (second compound 0.316 µM, first compound 3 µM) was 27% and the viability, T/C [9] was 23.5%. It also gave a viability, T/C [10] of 23.1%, a viability, T/C [11] of 18.1% and a viability, T/C [12] of 23.1%. For the same molecule, the viability, T/C (second compound 1 µM, first compound 0.949 µM) was 21.5% and the viability, T/C (second compound 1 µM, first compound 3 µM) was 34.4%.
In the case of `NC1CCC(NC2CC2c2ccccc2)CC1` (stereo not given) + CCN1C(C(=O)NC23CCC(C(=O)O)(CC2)CC3)C(c2cccc(Cl)c2F)C2(C(=O)Nc3cc(Cl)ccc32)C12CCCCC2, the IC50 (second compound 0.03 µM) is reported as > 100 nM, the IC50 (second compound 0.0949 µM) is reported as > 100 nM and the IC50 (second compound 0.3 µM) is reported as > 100 nM. For the same molecule, the IC50 (second compound 0.949 µM) was > 100 nM, the IC50 (second compound 3 µM) was > 100 nM and the viability, T/C (second compound 0.03 µM, first compound 0.000316 µM) was 93.2%. For the same molecule, the viability, T/C (second compound 0.03 µM, first compound 0.001 µM) was 67.1%, the viability, T/C (second compound 0.03 µM, first compound 0.00316 µM) was 129% and the viability, T/C (second compound 0.03 µM, first compound 0.01 µM) was 77.7%. For the same molecule, the viability, T/C (second compound 0.03 µM, first compound 0.0316 µM) was 87%, the viability, T/C (second compound 0.03 µM, first compound 0.1 µM) was 65.3% and the viability, T/C (second compound 0.0949 µM, first compound 0.000316 µM) was 90%. The viability, T/C (second compound 0.0949 µM, first compound 0.001 µM) was 100%, the viability, T/C (second compound 0.0949 µM, first compound 0.00316 µM) was 93.2% and the viability, T/C (second compound 0.0949 µM, first compound 0.01 µM) was 96.4%. The viability, T/C (second compound 0.0949 µM, first compound 0.0316 µM) was 85.1%, the viability, T/C (second compound 0.0949 µM, first compound 0.1 µM) was 68.8% and the viability, T/C (second compound 0.3 µM, first compound 0.000316 µM) was 110%. The viability, T/C (second compound 0.3 µM, first compound 0.001 µM) was 105%, the viability, T/C (second compound 0.3 µM, first compound 0.00316 µM) was 112% and the viability, T/C (second compound 0.3 µM, first compound 0.01 µM) was 87.3%. The viability, T/C (second compound 0.3 µM, first compound 0.0316 µM) was 95.1%, the viability, T/C (second compound 0.3 µM, first compound 0.1 µM) was 112% and the viability, T/C (second compound 0.949 µM, first compound 0.000316 µM) was 108%. It also gave a viability, T/C (second compound 0.949 µM, first compound 0.001 µM) of 103%, a viability, T/C (second compound 0.949 µM, first compound 0.00316 µM) of 92% and a viability, T/C (second compound 0.949 µM, first compound 0.01 µM) of 98.5%. It also gave a viability, T/C (second compound 0.949 µM, first compound 0.0316 µM) of 78.3%, a viability, T/C (second compound 0.949 µM, first compound 0.1 µM) of 88.5% and a viability, T/C (second compound 3 µM, first compound 0.000316 µM) of 92.2%. For the same molecule, the viability, T/C (second compound 3 µM, first compound 0.001 µM) was 94%, the viability, T/C (second compound 3 µM, first compound 0.00316 µM) was 90.2% and the viability, T/C (second compound 3 µM, first compound 0.01 µM) was 61.6%. For the same molecule, the viability, T/C (second compound 3 µM, first compound 0.0316 µM) was 86.6% and the viability, T/C (second compound 3 µM, first compound 0.1 µM) was 88.5%.

Reference: PubChem BioAssay AID1963434 (Molecular Pharmacology Branch, DTP, NCI, 2024)
